From ChEMBL document CHEMBL5360540, “Antitumor effect of 3-(quinolin-2-ylmethylene)-4,6-dimethyl-5-hydroxy-7-azaoxindole down-regulating the Gas6-Axl axis” (Eur J Med Chem, 2023) come the findings set out here.

As a reminder, the inhibition is the percentage by which the read-out fell short of the control. In general, IC50 refers to the concentration at which inhibition is half-maximal.

Each structure is given as a SMILES string.

For data set [1], the system named is MCF7. In words: Cytotoxicity against human MCF7 cells assessed as inhibition of cell growth at 30 uM incubated for 48 hrs by MTT assay relative to control. The class given is functional. (In general: Tetrazolium assays rely on reduction of a dye to a coloured formazan, in cell work by metabolically active cells.)
Data set [2] concerns PANC-1. Nature of the data set: Cytotoxicity against human PANC-1 cells assessed as inhibition of cell growth at 30 uM incubated for 48 hrs by MTT assay relative to control. The class given is functional.
The subject of data set [3] is MCF7. In words: Cytotoxicity against human MCF7 cells assessed as inhibition of cell growth incubated for 48 hrs by MTT assay. It is filed as functional, cell-based. The conditions noted are these: MCF7, 48 h.
Data set [4] concerns MDA-MB-231. Nature of the data set: Cytotoxicity against human MDA-MB-231 cells assessed as inhibition of cell growth incubated for 48 hrs by MTT assay. It is filed as functional, cell-based. The conditions noted are these: MDA-MB-231, 48 h.
Data set [5] concerns HT-29. Nature of the data set: Cytotoxicity against human HT-29 cells assessed as inhibition of cell growth incubated for 48 hrs by MTT assay. The class given is functional, cell-based. To be noted: HT-29, 48 h.
Data set [6] concerns DU-145. Nature of the data set: Cytotoxicity against human DU-145 cells assessed as inhibition of cell growth incubated for 48 hrs by MTT assay. To be noted: DU-145, 48 h. The class given is functional, cell-based.
In data set [7] the test system is U-937. In words: Cytotoxicity against human U-937 cells assessed as inhibition of cell growth incubated for 48 hrs by MTT assay. The class given is functional, cell-based. To be noted: U-937, 48 h.
The subject of data set [8] is A549. In words: Cytotoxicity against human A549 cells assessed as inhibition of cell growth incubated for 48 hrs by MTT assay. The class given is functional, cell-based. To be noted: A549, 48 h.
In data set [9] the test system is PANC-1. Nature of the data set: Cytotoxicity against human PANC-1 cells assessed as inhibition of cell growth incubated for 48 hrs by MTT assay. The class given is functional, cell-based. To be noted: PANC-1, 48 h.
Data set [10] can be described thus: Cytotoxicity against CHO-K1 cells assessed as inhibition of cell growth incubated for 48 hrs by MTT assay. The conditions noted are these: Chinese hamster. It is filed as toxicity, cell-based, Cricetulus griseus.
A short description of data set [11]: Cytotoxicity against HEK293 cells assessed as inhibition of cell growth incubated for 48 hrs by MTT assay. It is filed as toxicity, cell-based. The conditions noted are these: human.

With `Cc1nc2c(c(C)c1O)/C(=C/c1ccco1)C(=O)N2`, the inhibition at 30 µM in data set [1] stood at 31.5%; in [2], 16.4%.

`Cc1cc(C)c(/C=C2\C(=O)Nc3nc(C)c(O)c(C)c32)[nH]1`: the inhibition at 30 µM in data set [1] came out at 47.3%; in data set [2], 44.8%.

For the compound `Cc1nc2c(c(C)c1O)/C(=C/c1nccs1)C(=O)N2`, the inhibition at 30 µM is 5.6% in data set [1] and 9% in [2].

As for `Cc1nc2c(c(C)c1O)/C(=C/c1cnc[nH]1)C(=O)N2`, the results for the inhibition at 30 µM in data set [1] and in data set [2] were 4.1% and 4.5%, respectively.

For the compound `Cc1nc2c(c(C)c1O)/C(=C/c1ccc3ccccc3c1)C(=O)N2`, the values for the inhibition at 30 µM in data set [1] and in data set [2] were 30.5% and 29%, respectively.

Turning to `COc1cccc(/C=C2\C(=O)Nc3nc(C)c(O)c(C)c32)c1`, the inhibition at 30 µM in [1] stood at 29.6%; in data set [2] it was 46.5%.

As to `Cc1nc2c(c(C)c1O)/C(=C/c1ccccc1O)C(=O)N2`, the figures for the inhibition at 30 µM in data set [1] and in [2] were 29.2% and 42.1%, respectively.

In the case of `Cc1ccsc1/C=C1\C(=O)Nc2nc(C)c(O)c(C)c21`, the figures for the inhibition at 30 µM in data set [1] and in [2] were 59% and 47.3%, respectively.

As to `COc1ccccc1/C=C1\C(=O)Nc2nc(C)c(O)c(C)c21`, the inhibition at 30 µM was determined as 30.7% in [1] and 10.2% in data set [2].

Consider `Cc1nc2c(c(C)c1O)/C(=C/c1ccncc1)C(=O)N2`, for which the inhibition at 30 µM amounted to 63.2% in [1] and 65.5% in data set [2]. Besides, the IC50 in data set [3] is 19.1 µM; in data set [4], greater than 90 µM; in data set [5] it was 30.1 µM; in data set [6], 30.8 µM; in data set [7], 34.5 µM; in data set [8], 30.1 µM. Also, the IC50 in data set [9] came out at 19.1 µM. The IC50 at 48 h was 57 µM in data set [10] and greater than 90 µM in data set [11].

For the compound `Cc1nc2c(c(C)c1O)/C(=C/c1ccc([N+](=O)[O-])cc1)C(=O)N2`, the results for the inhibition at 30 µM in data set [1] and in [2] were 16.3% and 32.6%, respectively.

Consider `Cc1nc2c(c(C)c1O)/C(=C/c1ccc[nH]1)C(=O)N2`, for which the inhibition at 30 µM is 27% in data set [1] and 16.9% in [2].

`Cc1ccc(/C=C2\C(=O)Nc3nc(C)c(O)c(C)c32)s1`: the inhibition at 30 µM was determined as 53.4% in data set [1] and 30.2% in data set [2].

For the compound `COc1ccc(Br)cc1/C=C1\C(=O)Nc2nc(C)c(O)c(C)c21`, the inhibition at 30 µM is 74.7% in data set [1] and 71.8% in data set [2]. For the same compound, the IC50 was found to be 11 µM in [3]; 10.5 µM in data set [4]; 25.1 µM in data set [5]; 4.6 µM in data set [6]; 12.6 µM in [7]; 10.1 µM in data set [8]. For the same compound, the IC50 in data set [9] worked out at 6.4 µM. In addition, the IC50 at 48 h was 30.1 µM in data set [10] and 19.5 µM in data set [11].

Turning to `COc1cc(/C=C/C=C2\C(=O)Nc3nc(C)c(O)c(C)c32)ccc1O`, the inhibition at 30 µM in [1] amounted to 6.9%; in data set [2] it was 24.5%.

In the case of `Cc1nc2c(c(C)c1O)/C(=C/c1ccccc1[N+](=O)[O-])C(=O)N2`, the values for the inhibition at 30 µM in data set [1] and in data set [2] were 23.9% and 27.9%, respectively.

For the compound `Cc1nc2c(c(C)c1O)/C(=C/c1ccc(Cl)cc1)C(=O)N2`, the inhibition at 30 µM in [1] worked out at 51.7%; in data set [2] it was 45%.

For the compound `Cc1nc2c(c(C)c1O)/C(=C/c1cccs1)C(=O)N2`, the inhibition at 30 µM in data set [1] turned out to be 57.8%; in data set [2] it was 42.3%.

With `Cc1nc2c(c(C)c1O)/C(=C/c1ccoc1)C(=O)N2`, the inhibition at 30 µM in [1] is 66.3%; in data set [2], 26.2%. Besides, the IC50 in [3] is 22.9 µM; in [4] it was greater than 90 µM; in data set [5] it was greater than 90 µM; in data set [6], 22.9 µM; in data set [7], 31.5 µM; in data set [8], greater than 90 µM. Besides, in data set [9], the IC50 is greater than 100 µM. The IC50 at 48 h in data set [10] and in data set [11] was greater than 90 µM each time.

In the case of `CCCCC/C=C1\C(=O)Nc2nc(C)c(O)c(C)c21`, the values for the inhibition at 30 µM in [1] and in data set [2] were 76.9% and 77.5%, respectively. The IC50 amounted to 13.9 µM in data set [3]; 12.6 µM in data set [4]; 12.9 µM in data set [5]; 11 µM in data set [6]; 11.5 µM in data set [7]; 7.6 µM in data set [8]. Further, the IC50 in data set [9] came out at 8.1 µM. In addition, the results for the IC50 at 48 h in data set [10] and in data set [11] were 20.9 µM and 6.1 µM, respectively.

For `Cc1nc2c(c(C)c1O)/C(=C/c1ccc(F)cc1)C(=O)N2`, the inhibition at 30 µM in [1] is 48.3%; in data set [2], 51.9%.

Regarding `Cc1nc2c(c(C)c1O)/C(=C/C(c1ccccc1)c1ccccc1)C(=O)N2`, the figures for the inhibition at 30 µM in [1] and in data set [2] were 78.1% and 81.5%, respectively. The IC50 was found to be 6.4 µM in data set [3]; 22.9 µM in [4]; 11.5 µM in data set [5]; 8.8 µM in data set [6]; 16.6 µM in [7]; 31.5 µM in data set [8]. The IC50 in data set [9] amounted to 7.4 µM. Further, the IC50 at 48 h in [10] came to 30.1 µM; in data set [11], 37.8 µM.

Take `Cc1nc2c(c(C)c1O)/C(=C/c1ccccn1)C(=O)N2`: the inhibition at 30 µM in data set [1] amounted to 28.1%; in data set [2], 29.3%.

On to `Cc1ccc(/C=C2\C(=O)Nc3nc(C)c(O)c(C)c32)cc1`, for which the inhibition at 30 µM in data set [1] was determined as 32.3%; in [2] it was 29.2%.

With `COc1cc(/C=C2\C(=O)Nc3nc(C)c(O)c(C)c32)cc(OC)c1OC`, the figures for the inhibition at 30 µM in data set [1] and in data set [2] were 41.2% and 40.7%, respectively.

Turning to `COc1ccc(OC)c(/C=C2\C(=O)Nc3nc(C)c(O)c(C)c32)c1`, the inhibition at 30 µM in [1] is 67.5%; in data set [2], 69.3%. Also, the IC50 in [3] is 20.9 µM; in data set [4] it was 22.9 µM; in data set [5] it was 16.6 µM; in data set [6], 5.6 µM; in data set [7], 33 µM; in data set [8], 47.5 µM. Moreover, the IC50 in [9] was 19.5 µM. Also, the values for the IC50 at 48 h in data set [10] and in data set [11] were 47.5 µM and 11 µM, respectively.

Regarding `COc1ccc(/C=C2\C(=O)Nc3nc(C)c(O)c(C)c32)cc1`, the values for the inhibition at 30 µM in [1] and in data set [2] were 23.9% and 36.4%, respectively.

With `Cc1nc2c(c(C)c1O)/C(=C/c1c[nH]c3ccccc13)C(=O)N2`, the values for the inhibition at 30 µM in [1] and in [2] were 2.4% and 17.1%, respectively.

As to `Cc1nc2c(c(C)c1O)/C(=C/c1ncc[nH]1)C(=O)N2`, the inhibition at 30 µM amounted to 2.6% in data set [1] and 7.2% in [2].

In the case of `Cc1nc2c(c(C)c1O)/C(=C/c1cccc3[nH]ccc13)C(=O)N2`, the inhibition at 30 µM in [1] was determined as 14.5%; in [2], 32.3%.

`CCC(/C=C1\C(=O)Nc2nc(C)c(O)c(C)c21)CC`: the inhibition at 30 µM in [1] came out at 30.5%; in data set [2] it was 45%.

Take `Cc1nc2c(c(C)c1O)/C(=C/C1CCCCC1)C(=O)N2`: the inhibition at 30 µM is 10% in data set [1] and 49.1% in data set [2].
